How the values were obtained:
RAW 264.7 cells = test: MTT assay, cytotoxicity in RAW 264.7 cells; assay type: cell-based, mouse; details: 20 μM (highest concentration)
Description: In order to example whether the iNOS production inhibitory effect is attributable to the toxicity of the sample itself (inventive composition, thio-Cl-IB-MECA), an MTT (3-(4,5-dimethylthiazol-2-yl)-2,5-diphenyltetrazolium bromide) assay was performed.

TNF-α = TNF-α secretion (ELISA) and mRNA expression (RT-PCR) in LPS-stimulated RAW 264.7 cells; assay type: cell-based, mouse
Description: TNF-α is a cytokine whose expression increases in cells stimulated by LPS, and it influences the expression of IL-1β and the progression of inflammatory reactions. Thus, the effect of the inventive composition on the expression of TNF-α was examined. Specifically, RAW 264.7 cells were pretreated with each of 20, 10 and 5 μM of the inventive composition (thio-Cl-IB-MECA) and treated with LPS (1 μg/ml) to induce inflammatory reactions. Then, the cells were incubated for 6 hours, after which the supernatant was taken and the amount of TNF-α secreted into the supernatant was measured using an ELISA ([…]) kit.
In addition, in order to examine whether TNF-α is expressed at the gene level, the effect of the inventive composition on the expression of TNF-α mRNA was also tested using the RT-PCR method.

NF-κB = NF-κB signaling (Western blot, EMSA) in LPS-stimulated RAW 264.7 cells; assay type: cell-based, mouse
Text: NF-κB is a transcription factor consisting of p65/p50 and is present in an inactivated state by binding to IκB in the cytoplasm, but when it is stimulated by, for example, LPS, it is activated by a series of processes, including the phosphorylation and degradation of IκB by IκB kinase (IKK). When NF-κB state becomes a free state, it moves into the nucleus and binds to the κB-binding site, thereby regulating the expression of genes, such as iNOS, TNF-α and IL-1β, which are involved in inflammatory reactions. Thus, the effect of the inventive composition on the NF-κB signaling system was tested by Western blot analysis and EMSA.
EMSA was performed in order to examine whether NF-κB moves into the nucleus to bind to DNA.

[1] = test system: Wnt signaling-related proteins; test: PI-3 kinase / Wnt signaling proteins and β-catenin expression in LPS-stimulated RAW 264.7 cells; assay type: cell-based, mouse
Description: A test was carried out to examine the effects of the inventive composition on the expressions of PI-3 kinase (which influences the NF-κB signaling pathway) and Wnt signaling-related proteins in RAW 264.7 cells. Specifically, RAW 264.7 cells were treated with the inventive composition (20 μM thio-Cl-IB-MECA), and after 30 minutes, were stimulated by LPS. At intervals of 5, 15, 30 and 60 minutes after culture, proteins were extracted from all the cells, and the effects of the inventive composition on the expressions of the proteins were measured in comparison with those in the control group treated with only LPS.
In order to examine the intranuclear movement of β-catenin and the accumulation of β-catenin in the cytoplasm, RAW 264.7 cells were treated with each of 5, 10 and 20 μM of the inventive composition (thio-Cl-IB-MECA), and after 30 minutes, the cells were stimulated by LPS. After 1 hour of culture, the cells were collected and separated into a nuclear extract and a cytosol extract. The expressions of β-catenin protein in the cytosol and nuclear portions were analyzed by Western blot, and the results of the analysis are shown in FIG. 7b. […] When no LPS stimulation is applied, β-catenin is degraded by phosphorylation.

LNCaP = test: Morphological change of LNCaP cells; assay type: cell-based, human; details: 40, 20 and 10 μM, 48 hours
Description: (§1) Each of LNCaP and PC-3 prostate cancer cell lines was treated with 40, 20 and 10 μM of thio-Cl-IB-MECA and cultured for 48 hours, and then the morphological change of the cells was observed.
(§2) Specifically, each type of the prostate cancer cells was diluted with 10% FBS (Fetal Bovine Serum)-containing medium to a density of 1.0×10^6 cells per 100 mm culture dish and cultured under the conditions of 37° C. and 5% CO2, followed by washing twice with PBS (Phosphate Buffered Saline). Thio-Cl-IB-MECA was diluted in 10% FBS-containing medium at required concentration, and then 10 ml of the culture medium prepared in the 100 mm culture dish was added thereto and incubated for a given time. The morphology of the cells was observed as a function of treatment time and concentration (FIGS. 11a and 11b).

PC-3 = test: Morphological change of PC-3 cells; assay type: cell-based, human; details: 40, 20 and 10 μM, 48 hours
Description: as §1, §2

HCT 116 cells = test: Western blot of cell cycle regulation-related proteins and Wnt signaling in HCT 116 cells; assay type: cell-based, human; details: 40 μM
Description: Because it was confirmed that thio-Cl-IB-MECA arrests the G1 phase of human colorectal cancer HCT 116 cells, a test was carried out to examine whether cell cycle regulation-related proteins involved in the G1 phase are expressed and to examine the expression of Wnt-related proteins in order to examine whether the inhibitory effect of thio-Cl-IB-MECA on the proliferation of cancer cells is attributable to regulation of the signaling pathway.
Specifically, HCT 116 cells were diluted with 10% FBS-containing medium to a density of 1×10^6 cells per 100 mm culture dish and cultured under the conditions of 37° C. and 5% CO2 for 24 hours, followed by washing twice with PBS. Thio-Cl-IB-MECA was diluted in 10% FBS-containing medium to a concentration of 40 μM, and then 10 ml of the culture medium prepared in the 100 mm culture dish was added thereto and cultured for a given period. The non-adherent cells and adherent cells in the cell medium were collected and washed twice with PBS, after which the cells were suspended in boiling cell lysis buffer and heated at 100° C. for 5 minutes. The cells were cooled and then stored at […], and the stored cells were thawed at 37° C. immediately before use in protein quantification and electrophoresis. Protein quantification was performed using the BCA method, and […] of protein was electrophoresed on 8-12% SDS-polyacrylamide gel at 150 V for 110 minutes. The gel at the desired site was cut and transferred to a PVDF (polyvinylidene fluoride) for 1 hour, and after which it was washed twice with PBST and stirred in blocking buffer at room temperature for 1 hour. Then, the membrane was washed three times with PBST for 5 minutes each time, after which primary antibody was diluted at a ratio of 1:1,000-1:2,000 with 3% skimmed milk/PBST, and it was sealed together with the membrane and incubated with stirring at 4° C. for 12 hours or more. The membrane was washed 2-3 times with PBST for 5 minutes each time, after which HRP-conjugated secondary antibody was diluted at a ratio of 1:1,500-1:2,000 and incubated with the membrane at room temperature for 2-3 hours. The membrane was washed three times with PBST for 5 minutes each time and treated with a Western blot substrate (WESTSAVE Up™), and the produced luminescence was examined using LAS-3000.

[2] = 20 μM, LPS stimulation, 5, 15, 30, 60 min

## CNC(=O)[C@H]1S[C@@H](n2cnc3c(NCc4cccc(I)c4)nc(Cl)nc32)[C@H](O)[C@@H]1O [thio-Cl-IB-MECA, 2-chloro-N^6-(3-iodobenzyl)-4′-thioadenosine-5′-N-methyluronamide]
RAW 264.7 cells
  viability of RAW 264.7 cells (MTT): 80%
TNF-α; ELISA, 5, 10, 20 μM, LPS 1 μg/ml, 6 hours
  amount of TNF-α secreted: concentration-dependently inhibited
TNF-α; RT-PCR
  expression of TNF-α mRNA: also inhibited
NF-κB; 20 μM, 15 minutes after LPS
  degradation of IκB protein: the degradation of IκB protein was inhibited
NF-κB; EMSA
  DNA binding of NF-κB: inhibited the DNA binding of NF-κB
  protein bonding of p65 subunit of NF-κB: inhibited
[1]; [2]
  expression of p-AKT: also inhibited at 30 min and 60 min
  expression of p-GSK 3α/β: inhibited at 30 min and 60 min
[1]; 5, 10 and 20 μM, LPS, 1 hour
  expression of p-β-catenin: concentration-dependently inhibited
  expressions of β-catenin in the cytosol and nuclear portions: concentration-dependently inhibited
LNCaP
  number of the cells, LNCaP: decreased in a concentration-dependent manner
PC-3
  number of the cells, PC-3: decreased in a concentration-dependent manner
HCT 116 cells
  Wnt signaling pathway: inhibited the Wnt signaling pathway
  expression of Rb and p-Rb: also inhibited the expression
  expression of cyclin D1, cyclin A and cyclin E: inhibited the expression
  expression of p53: increased the expression
